This note sets out measurements from patent US9546164B2 (GENENTECH, INC., priority 2013, dated 2017).

Where a name gives a salt, the structure may show the parent alone.

Sequence of hNav1.7 (Q15858 other isoform, or with tags, fused parts or gaps): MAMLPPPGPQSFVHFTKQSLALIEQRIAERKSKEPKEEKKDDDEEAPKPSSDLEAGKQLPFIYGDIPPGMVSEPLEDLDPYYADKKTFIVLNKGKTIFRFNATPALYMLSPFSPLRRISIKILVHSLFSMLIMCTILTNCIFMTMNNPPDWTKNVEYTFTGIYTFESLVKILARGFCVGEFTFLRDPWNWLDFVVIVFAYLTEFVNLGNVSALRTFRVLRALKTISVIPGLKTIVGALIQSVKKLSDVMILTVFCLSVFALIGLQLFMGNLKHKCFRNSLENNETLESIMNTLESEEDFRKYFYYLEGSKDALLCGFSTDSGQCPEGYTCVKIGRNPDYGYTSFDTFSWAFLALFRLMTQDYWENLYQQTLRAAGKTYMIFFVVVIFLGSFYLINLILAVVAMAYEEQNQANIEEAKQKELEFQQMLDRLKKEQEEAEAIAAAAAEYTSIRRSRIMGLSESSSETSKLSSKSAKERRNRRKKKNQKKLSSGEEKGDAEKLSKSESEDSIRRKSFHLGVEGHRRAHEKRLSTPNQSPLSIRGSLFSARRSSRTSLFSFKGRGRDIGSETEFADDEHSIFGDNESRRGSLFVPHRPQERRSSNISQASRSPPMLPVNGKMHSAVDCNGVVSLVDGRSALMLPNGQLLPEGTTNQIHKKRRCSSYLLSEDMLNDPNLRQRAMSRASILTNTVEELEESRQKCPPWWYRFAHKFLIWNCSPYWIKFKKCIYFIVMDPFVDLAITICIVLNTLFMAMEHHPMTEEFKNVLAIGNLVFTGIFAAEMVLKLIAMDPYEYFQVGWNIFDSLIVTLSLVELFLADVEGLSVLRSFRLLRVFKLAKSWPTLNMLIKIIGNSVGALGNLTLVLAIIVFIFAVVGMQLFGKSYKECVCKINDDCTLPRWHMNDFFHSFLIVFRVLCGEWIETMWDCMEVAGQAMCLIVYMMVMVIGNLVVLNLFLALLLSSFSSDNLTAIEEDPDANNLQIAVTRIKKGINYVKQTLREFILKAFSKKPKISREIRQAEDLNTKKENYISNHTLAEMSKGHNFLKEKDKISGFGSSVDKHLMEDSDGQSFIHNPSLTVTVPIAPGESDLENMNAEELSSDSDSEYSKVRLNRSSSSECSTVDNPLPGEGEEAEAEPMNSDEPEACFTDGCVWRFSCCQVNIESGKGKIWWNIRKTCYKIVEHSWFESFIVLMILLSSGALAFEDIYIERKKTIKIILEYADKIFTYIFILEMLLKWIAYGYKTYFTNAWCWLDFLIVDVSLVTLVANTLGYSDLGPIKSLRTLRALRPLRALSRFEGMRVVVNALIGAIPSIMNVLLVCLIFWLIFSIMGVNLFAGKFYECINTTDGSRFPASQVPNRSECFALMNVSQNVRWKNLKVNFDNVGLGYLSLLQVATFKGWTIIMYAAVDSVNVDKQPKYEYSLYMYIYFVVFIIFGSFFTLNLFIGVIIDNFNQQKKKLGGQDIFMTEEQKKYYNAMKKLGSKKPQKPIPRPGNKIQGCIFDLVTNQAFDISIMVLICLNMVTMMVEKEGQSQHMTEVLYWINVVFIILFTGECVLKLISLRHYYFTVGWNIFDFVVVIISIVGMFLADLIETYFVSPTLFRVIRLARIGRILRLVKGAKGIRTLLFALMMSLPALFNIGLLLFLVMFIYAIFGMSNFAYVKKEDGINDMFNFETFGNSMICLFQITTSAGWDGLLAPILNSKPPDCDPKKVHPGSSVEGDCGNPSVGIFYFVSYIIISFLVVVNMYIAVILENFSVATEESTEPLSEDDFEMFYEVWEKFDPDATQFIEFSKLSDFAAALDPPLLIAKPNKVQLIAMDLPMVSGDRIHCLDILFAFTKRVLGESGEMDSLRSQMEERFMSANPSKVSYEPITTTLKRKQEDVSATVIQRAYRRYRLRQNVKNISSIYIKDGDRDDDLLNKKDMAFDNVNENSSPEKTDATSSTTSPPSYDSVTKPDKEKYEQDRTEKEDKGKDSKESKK
Sequence of hNav1.7 (Q07699 19-218 partner): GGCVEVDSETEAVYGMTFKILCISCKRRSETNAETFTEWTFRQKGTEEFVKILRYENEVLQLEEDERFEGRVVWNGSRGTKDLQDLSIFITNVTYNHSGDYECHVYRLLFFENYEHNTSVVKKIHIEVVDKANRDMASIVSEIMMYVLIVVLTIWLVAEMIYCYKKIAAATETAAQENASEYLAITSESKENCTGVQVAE

One experiment concerns the target hNav1.7 (Homo sapiens (Human), UniProt Q15858). The experiment can be described thus: Tritiated sulfonamide competitive binding to membranes from cells expressing hNav1.7 and the β1 subunit.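 Also: Filter-bound radioactivity counted by liquid scintillation, nonspecific binding defined with excess unlabelled ligand, IC50 fitted to percent inhibition of specific binding.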
Conditions: not given
Turning to `CS(=O)(=O)NC(=O)c1cc(C2CC2)c(O[C@@H]2CCCN(Cc3ccc(F)cc3C(F)(F)F)C2)cc1F` [Example 34, (R)-5-cyclopropyl-2-fluoro-4-((1-(4-fluoro-2-(trifluoromethyl)benzyl)piperidin-3-yl)oxy)-N-(methylsulfonyl)benzamide], the IC50 was 1.9 nM. `O=C(NS(=O)(=O)C1CC1)c1cc(C2CC2)c(O[C@@H]2CCCN(c3ccc(F)cc3)C2)cc1F` [Example 38, (R)-5-cyclopropyl-N-(cyclopropylsulfonyl)-2-fluoro-4-((1-(4-fluorophenyl)piperidin-3-yl)oxy)benzamide] came in with an IC50 of 3.9 nM. Molecule `CS(=O)(=O)NC(=O)c1cc(C2CC2)c(O[C@@H]2CCCN(Cc3cccc4c3CNC4)C2)cc1F` [Example 14, (R)-5-cyclopropyl-2-fluoro-4-((1-(isoindolin-4-ylmethyl)piperidin-3-yl)oxy)-N-(methylsulfonyl)benzamide] returned an IC50 of 318 nM.

Turning to `CS(=O)(=O)NC(=O)c1cc(C2CC2)c(CN2CCC(Oc3ccc(C(F)(F)F)cc3)CC2)cc1F` [Example 499, 5-cyclopropyl-2-fluoro-N-(methylsulfonyl)-4-((4-(4-(trifluoromethyl)phenoxy)piperidin-1-yl)methyl)benzamide], the IC50 stood at 13.6 nM.

Staying with this experiment, now noted: read-out: Ligand Binding Assay; 100 pM [3H]compound, membranes with hNav1.7 and β1 subunit, 18 h, room temperature.
Take `Cc1ccc(CN2CCC[C@@H](Oc3cc(F)c(C(=O)NS(C)(=O)=O)cc3C3CC3)C2)c(C)c1` [Example 423, (R)-5-cyclopropyl-4-((1-(2,4-dimethylbenzyl)piperidin-3-yl)oxy)-2-fluoro-N-(methylsulfonyl)benzamide, trifluoroacetic acid salt]: the IC50 is 2.1 nM. For `O=C(NS(=O)(=O)N1CCC1)c1cc(C2CC2)c(CN2CCC(OCc3ccc(F)cc3Cl)CC2)cc1F` [Example 479, N-(azetidin-1-ylsulfonyl)-4-((4-((2-chloro-4-fluorobenzyl)oxy)piperidin-1-yl)methyl)-5-cyclopropyl-2-fluorobenzamide, trifluoroacetic acid salt], the IC50 was found to be 55.3 nM. Consider `CCS(=O)(=O)NC(=O)c1cc(C2CC2)c(OCC2CCN(Cc3cc(C(F)(F)F)cc(C4CC4)n3)CC2)cc1F` [Example 307, 5-cyclopropyl-4-((1-((6-cyclopropyl-4-(trifluoromethyl)pyridin-2-yl)methyl)piperidin-4-yl)methoxy)-N-(ethylsulfonyl)-2-fluorobenzamide], for which the IC50 worked out at 6.7 nM. Still for that read-out and setting: the same measure for `C[C@H](c1cc(Cl)cc(Cl)c1)N1CCC(COc2cc(F)c(C(=O)NS(=O)(=O)N3CCC3)cc2C2CC2)CC1` (single isomer, unassigned) [Example 271]: 3.7 nM; for `CS(=O)(=O)NC(=O)c1cc(C2CC2)c(OCC2CN(C(=O)c3cc(Cl)cc(Cl)c3)C2)cc1F` [Example 134, 5-Cyclopropyl-4-((1-(3,5-dichlorobenzoyl)azetidin-3-yl)methoxy)-2-fluoro-N-(methylsulfonyl)benzamide]: 346 nM. The same measure, in the same setting: as for `CS(=O)(=O)NC(=O)c1cc(C2CC2)c(OCC2CCN(Cc3ccccc3Cl)CC2)cc1F` [Example 191, 4-((1-(2-Chlorobenzyl)piperidin-4-yl)methoxy)-5-cyclopropyl-2-fluoro-N-(methylsulfonyl)benzamide], the figure is 32 nM; as for `CS(=O)(=O)NC(=O)c1cc(C2CC2)c(OCC2CCN(C3(c4cc(Cl)cc(Cl)c4)COC3)CC2)cc1F` [Example 174, 5-Cyclopropyl-4-((1-(3-(3,5-dichlorophenyl)oxetan-3-yl)piperidin-4-yl)methoxy)-2-fluoro-N-(methylsulfonyl)benzamide], 12 nM. Turning to `Cc1cc(F)ccc1S(=O)(=O)N1CCC(COc2cc(F)c(C(=O)NS(C)(=O)=O)cc2C2CC2)CC1` [Example 386, 5-cyclopropyl-2-fluoro-4-((1-((4-fluoro-2-methylphenyl)sulfonyl)piperidin-4-yl)methoxy)-N-(methylsulfonyl)benzamide], the IC50 came to 52.1 nM.

Regarding `CS(=O)(=O)NC(=O)c1cc(C2CC2)c(OCC2CCN(Cc3ccc(Cl)cc3)CC2)cc1F` [Example 104, 4-((1-(4-Chlorobenzyl)piperidin-4-yl)methoxy)-5-cyclopropyl-2-fluoro-N-(methylsulfonyl)benzamide], the IC50 was 45.1 nM.

In the case of `O=C(NS(=O)(=O)C1CC1)c1cc(C2CC2)c(OC[C@@H]2C[C@H]3CC[C@@H](C2)N3Cc2cc(C(F)(F)F)ccc2Cl)cc1F` [Example 397, 4-(((1R,3S,5S)-8-(2-chloro-5-(trifluoromethyl)benzyl)-8-azabicyclo[3.2.1]octan-3-yl)methoxy)-5-cyclopropyl-N-(cyclopropylsulfonyl)-2-fluorobenzamide, trifluoroacetic acid salt], the IC50 is 5.7 nM.

On to `CCS(=O)(=O)NC(=O)c1cc(C2CC2)c(OCC2CCN([C@@](C)(COC)c3cc(Cl)cc(Cl)c3)CC2)cc1F` (single isomer, unassigned) [Example 204], for which the IC50 came to 2.7 nM. For `CS(=O)(=O)NC(=O)c1cc(C2CC2)c(OCC2CCN(Cc3ccc(C(F)(F)F)c(Cl)c3)CC2)cc1F` [Example 220, 4-((1-(3-Chloro-4-(trifluoromethyl)benzyl)piperidin-4-yl)methoxy)-5-cyclopropyl-2-fluoro-N-(methylsulfonyl)benzamide], the IC50 was 17 nM. Turning to `CS(=O)(=O)NC(=O)c1cc(C2CC2)c(OCC2CCN(Cc3nc(-c4ccccc4Cl)no3)CC2)cc1F` [Example 410, 4-((1-((3-(2-chlorophenyl)-1,2,4-oxadiazol-5-yl)methyl)piperidin-4-yl)methoxy)-5-cyclopropyl-2-fluoro-N-(methylsulfonyl)benzamide, trifluoroacetic acid salt], the IC50 was determined as 10.9 nM. Still for that read-out and setting: the same measure for `O=C(NS(=O)(=O)C1CC1)c1cc(C2CC2)c(O[C@@H]2CCCN(c3ccccn3)C2)cc1F` [Example 492, (R)-5-cyclopropyl-N-(cyclopropylsulfonyl)-2-fluoro-4-((1-(pyridin-2-yl)piperidin-3-yl)oxy)benzamide]: 93.8 nM. Consider `COC[C@@H](c1ccccc1)N1CCC(COc2cc(F)c(C(=O)NS(C)(=O)=O)cc2C2CC2)CC1` [Example 222, (R)-5-cyclopropyl-2-fluoro-4-((1-(2-methoxy-1-phenylethyl)piperidin-4-yl)methoxy)-N-(methylsulfonyl)benzamide], for which the IC50 came to 160 nM.

In the case of `C[C@H](c1ccc(Cl)c(Cl)c1)N1CCC(COc2cc(F)c(C(=O)NS(C)(=O)=O)cc2C2CC2)CC1` (single isomer, unassigned) [Example 214], the IC50 came out at 3.1 nM.

Regarding `CS(=O)(=O)NC(=O)c1cc(C2CC2)c(OCC2CCN(C(=O)c3cccc(Cl)c3)CC2)cc1F` [Example 195, 4-((1-(3-Chlorobenzoyl)piperidin-4-yl)methoxy)-5-cyclopropyl-2-fluoro-N-(methylsulfonyl)benzamide], the IC50 was found to be 350 nM.

Consider `O=C(NS(=O)(=O)C(F)F)c1cc(C2CC2)c(OCC2CN(C(c3ccccc3)c3ccccc3)C2)cc1F` [Example 62], for which the IC50 was 47 nM. Consider `C[C@@H](c1cc(Cl)cc(Cl)c1)N1CCC(C)(COc2cc(F)c(C(=O)NS(C)(=O)=O)cc2C2CC2)CC1` (single isomer, unassigned) [Example 211], for which the IC50 came out at 1.7 nM. The same measure, in the same setting: as for `CS(=O)(=O)NC(=O)c1cc(C2CC2)c(OCC2CCN(S(=O)(=O)c3cc(Cl)cc(Cl)c3)CC2)cc1F` [Example 273, 5-Cyclopropyl-4-((1-((3,5-dichlorophenyl)sulfonyl)piperidin-4-yl)methoxy)-2-fluoro-N-(methylsulfonyl)benzamide], the figure is 8.5 nM.

Regarding `CS(=O)(=O)NC(=O)c1cc(C2CC2)c(OCC2CCN(Cc3ccc(Br)cc3Cl)CC2)cc1F` [Example 413, 4-((1-(4-bromo-2-chlorobenzyl)piperidin-4-yl)methoxy-5-cyclopropyl-2-fluoro-N-(methylsulfonyl)benzamide, trifluoroacetic acid salt], the IC50 came to 6 nM. Same read-out and setting: the same measure for `CS(=O)(=O)NC(=O)c1cc(C2CC2)c(OC[C@H]2CCN(Cc3cc(Cl)cc(Cl)c3)C(=O)C2)cc1F` (single isomer, unassigned) [Example 235]: 210 nM.

For `Cc1cc(C)cc(CN2CCC[C@@H](Oc3cc(F)c(C(=O)NS(C)(=O)=O)cc3C3CC3)C2)c1` [Example 436, (R)-5-cyclopropyl-4-((1-(3,5-dimethylbenzyl)piperidin-3-yl)oxy)-2-fluoro-N-(methylsulfonyl)benzamide, trifluoroacetic acid salt], the IC50 stood at 5.4 nM.

With `CS(=O)(=O)NC(=O)c1cc(C2CC2)c(OCC2CN([C@H](c3ccccc3)c3ccccc3Cl)C2)cc1F` [Example 151, (R)-4-((1-((2-Chlorophenyl)(phenyl)methyl)azetidin-3-yl)methoxy)-5-cyclopropyl-2-fluoro-N-(methylsulfonyl)benzamide], the IC50 amounted to 9.94 nM.

Consider `C[C@H](c1cc(Cl)cc(Cl)c1)N1CCC(F)(COc2cc(F)c(C(=O)NS(C)(=O)=O)cc2C2CC2)CC1` [Example 351, (R)-5-cyclopropyl-4-((1-(1-(3,5-dichlorophenyl)ethyl)-4-fluoropiperidin-4-yl)methoxy)-2-fluoro-N-(methylsulfonyl)benzamide, trifluoroacetic acid], for which the IC50 amounted to 5.3 nM.

With `O=C(NS(=O)(=O)N1CCC1)c1cc(C2CC2)c(CN2CCC[C@H](Oc3cc(Cl)cc(Cl)c3)C2)cc1F` [Example 54, (S)—N-(azetidin-1-ylsulfonyl)-5-cyclopropyl-4-((3-(3,5-dichlorophenoxy)piperidin-1-yl)methyl)-2-fluorobenzamide, acetic acid salt], the IC50 came out at 22 nM. Same read-out and setting: as for `CS(=O)(=O)NC(=O)c1cc(C2CC2)c(O[C@@H]2CCCN(Cc3cc(F)ccc3C(F)(F)F)C2)cc1F` [Example 318, (R)-5-cyclopropyl-2-fluoro-4-((1-(5-fluoro-2-(trifluoromethyl)benzyl)piperidin-3-yl)oxy)-N-(methylsulfonyl)benzamide], the figure is 2.6 nM. Still for that read-out and setting: as for `CC1(COc2cc(F)c(C(=O)NS(=O)(=O)C3CC3)cc2C2CC2)CN(c2ccc(C(F)(F)F)cn2)C1` [Example 488, 5-cyclopropyl-N-(cyclopropylsulfonyl)-2-fluoro-4-((3-methyl-1-(5-(trifluoromethyl)pyridin-2-yl)azetidin-2-3-yl)methoxy)benzamide, trifluoroacetic acid salt], the figure is 9.2 nM.
